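The compound was tested at five concentrations on cells cultured in 96-well plates, with a 48-hour exposure period. TGI: concentration producing complete growth inhibition.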
How the values were obtained:
Assay in all cases: NCI anticancer screen, dose series, 48 h
[1] = tested on: SNB-78 CNS
[2] = tested on: M14 melanoma
[3] = tested on: UO-31 renal
[4] = tested on: NCI-H460 lung
[5] = tested on: DMS 273 small cell lung
[6] = tested on: SF-539 CNS
[7] = tested on: SW-620 colon
[8] = tested on: A549 NSCLC
[9] = tested on: RPMI-8226 leukemia
[10] = tested on: SK-OV-3 ovarian
[11] = tested on: SF-295 CNS
[12] = tested on: DMS 114 small cell lung
[13] = tested on: A498 renal
[14] = tested on: M19-MEL melanoma
[15] = tested on: KM20L2 colon
[16] = tested on: U251 CNS
[17] = tested on: SN12C renal
[18] = tested on: SK-MEL-5 melanoma
[19] = tested on: SK-MEL-2 melanoma
[20] = tested on: NCI-H522 lung
[21] = tested on: CAKI-1 renal
[22] = tested on: K-562 leukemia
[23] = tested on: SNB-75 CNS
[24] = tested on: RXF 393 renal
[25] = tested on: NCI-H23 lung
[26] = tested on: HOP-18 NSCLC
[27] = tested on: COLO 205 colon
[28] = tested on: HOP-92 NSCLC
[29] = tested on: CCRF-CEM leukemia
[30] = tested on: 786-0 renal
[31] = tested on: SF-268 CNS
[32] = tested on: OVCAR-3 ovarian
[33] = tested on: HCC-2998 colon
[34] = tested on: OVCAR-4 ovarian
[35] = tested on: ACHN renal
[36] = tested on: IGROV1 ovarian
[37] = tested on: OVCAR-8 ovarian
[38] = tested on: HOP-62 NSCLC
[39] = tested on: EKVX NSCLC
[40] = tested on: TK-10 renal
[41] = tested on: MOLT-4 leukemia
[42] = tested on: HCT-116 colon
[43] = tested on: HL-60(TB) leukemia
[44] = tested on: MALME-3M melanoma
[45] = tested on: KM12 colon
[46] = tested on: DLD-1 colon
[47] = tested on: LXFL 529 NSCLC
[48] = tested on: SNB-19 CNS
[49] = tested on: HT29 colon
[50] = tested on: NCI-H226 lung
[51] = tested on: LOX IMVI melanoma
[52] = tested on: HCT-15 colon
[53] = tested on: UACC-62 melanoma
[54] = tested on: UACC-257 melanoma
[55] = tested on: SK-MEL-28 melanoma
[56] = tested on: OVCAR-5 ovarian

Measured: TGI

CC(C)N(C(=O)C12CC3CC(CC(C3)C1)C2)C(C)C
> 50 µM: [1] | [2] | [3] | [4] | [5] | [6] | [7] | [8] | [9] | [10] | [11] | [12] | [13] | [14] | [15] | [16] | [17] | [18] | [19] | [20] | [21] | [22] | [23] | [24] | [25] | [26] | [27] | [28] | [29] | [30] | [31] | [32] | [33] | [34] | [35] | [36] | [37] | [38] | [39] | [40] | [41] | [42] | [43] | [44] | [45] | [46] | [47] | [48] | [49] | [50] | [51] | [52] | [53] | [54] | [55] | [56]
